Assay results published in patent US8299056B2 (Signal Pharmaceuticals, LLC, priority 2008, dated 2012).

target: T1, Syk (Homo sapiens, UniProt P43405); experiment: Syk HTRF assay; type: biochemical; conditions: IC50 activity level, read-out: Activity Level
T1 construct: purchased Carna Biosciences
Procedure, shortened: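 Read-out is the 665 nm/615 nm time-resolved fluorescence ratio after EDTA stop and Eu-anti-phosphotyrosine plus streptavidin-DyLight 647 detection. Reaction ran 1 h at room temperature with start mix of 87.5 μM ATP and 80 nM substrate peptide in pH 7.6 HEPES/MgCl2 buffer.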

Row | Structure (SMILES) | IC50 [nM]
1 | Cc1cc(Nc2nc3cccc(N[C@H]4CC[C@@H](O)CC4)n3n2)c2c(c1)N(C)C(=O)C2 [Example 554, cis-4-(5-(4-hydroxycyclohexylamino)-[1,2,4]triazolo[1,5-a]pyridin-2-ylamino)-1,6-dimethylindolin-2-one] | 500 to 1000
2 | c1ccc(Nc2nc3cccc(-c4ccnc(N5CCNCC5)c4)n3n2)cc1 [Example 520, N-phenyl-5-(2-(piperazin-1-yl)pyridin-4-yl)-[1,2,4]triazolo[1,5-a]pyridin-2-amine] | 1000 to 10000
3 | Cc1conc1-c1cccc2nc(Nc3ccccc3)nn12 [Example 435, 5-(4-methylisoxazol-3-yl)-N-phenyl-[1,2,4]triazolo[1,5-a]pyridin-2-amine] | 1000 to 10000
4 | OC(Cc1cccc2nc(Nc3ccc(F)cc3)nn12)c1ccccc1 (stereo not shown) [Example 431, 2-(2-(4-fluorophenylamino)-[1,2,4]triazolo[1,5-a]pyridin-5-yl)-1-phenylethanol] | 250 to 500
5 | Cn1ncc2cc(Nc3nc4cccc(NC5CCOCC5)n4n3)ccc21 [Example 551, N^2-(1-methyl-1H-indazol-5-yl)-N^5-(tetrahydro-2H-pyran-4-yl)-[1,2,4]triazolo[1,5-a]pyridine-2,5-diamine] | 0.005 to 250
6 | c1cc(N[C@H]2CCCNC2)n2nc(Nc3ccc4nn[nH]c4c3)nc2c1 [Example 454, (S)-N^2-(1H-benzo[d][1,2,3]triazol-6-yl)-N^5-(piperidin-3-yl)-[1,2,4]triazolo[1,5-a]pyridine-2,5-diamine] | 0.005 to 250
7 | CNc1nc2cc(-c3cccc4nc(Nc5ccccc5)nn34)ccc2[nH]1 [Example 481, 5-(2-(methylamino)-1H-benzo[d]imidazol-5-yl)-N-phenyl-[1,2,4]triazolo[1,5-a]pyridin-2-amine] | 0.005 to 250
8 | c1cc(N[C@@H]2CCCNC2)n2nc(Nc3ccc4nn[nH]c4c3)nc2c1 [Example 455, (R)-N^2-(1H-benzo[d][1,2,3]triazol-6-yl)-N^5-(piperidin-3-yl)-[1,2,4]triazolo[1,5-a]pyridine-2,5-diamine] | 250 to 500
9 | N[C@H]1CC[C@@H](Oc2cccc3nc(Nc4ccc(C(F)(F)F)cc4)nn23)CC1 [Example 423, cis-5-(4-aminocyclohexyloxy)-N-(4-(trifluoromethyl)phenyl)-[1,2,4]triazolo[1,5-a]pyridin-2-amine] | 500 to 1000
10 | N[C@H]1CC[C@H](Nc2cccc3nc(Nc4ccccc4)nn23)CC1 (stereo in doubt) [Example 518, trans-N^5-(4-aminocyclohexyl)-N^2-phenyl-[1,2,4]triazolo[1,5-a]pyridine-2,5-diamine] | 500 to 1000
11 | CC1(C)C(=O)Nc2cc(Nc3nc4cccc(N5CCOCC5)n4n3)ccc21 [Example 571, 3,3-dimethyl-6-(5-morpholino-[1,2,4]triazolo[1,5-a]pyridin-2-ylamino)indolin-2-one] | 0.005 to 250
12 | Cc1cccc2nc(Nc3ccc4c(c3)NC(=O)C4(C)C)nn12 [Example 564] | 0.005 to 250

same assay, conditions: activity levels A-D, read-out: Activity Level (IC50 in the Syk HTRF assay)

Row | Structure (SMILES) | IC50 [nM]
13 | O[C@H]1CC[C@@H](Nc2cccc3nc(Nc4ccccc4F)nn23)CC1 [Example 357, cis-4-(2-(2-fluorophenylamino)-[1,2,4]triazolo[1,5-a]pyridin-5-ylamino)cyclohexanol] | 1000 to 10000
14 | COc1cc(Nc2nc3cccc(N[C@H]4CC[C@@H](O)CC4)n3n2)ccn1 [Example 378, cis-4-(2-(2-methoxypyridin-4-ylamino)-[1,2,4]triazolo[1,5-a]pyridin-5-ylamino)cyclohexanol] | 0.005 to 250
15 | O[C@H]1CCN(Cc2cccc3nc(Nc4ccc(C(F)(F)F)cc4)nn23)C1 [Example 336, (S)-1-((2-(4-(trifluoromethyl)phenylamino)-[1,2,4]triazolo[1,5-a]pyridin-5-yl)methyl)pyrrolidin-3-ol] | 1000 to 10000
16 | O[C@H]1CCCN(Cc2cccc3nc(Nc4ccc(C(F)(F)F)cc4)nn23)C1 [Example 300, (S)-1-((2-(4-(trifluoromethyl)phenylamino)-[1,2,4]triazolo[1,5-a]pyridin-5-yl)methyl)piperidin-3-ol] | 1000 to 10000
17 | CNC(=O)c1ccc(Nc2nc3cccc(OC4CCNCC4)n3n2)cc1 [Example 284, N-methyl-4-(5-(piperidin-4-yloxy)-[1,2,4]triazolo[1,5-a]pyridin-2-ylamino)benzamide] | 1000 to 10000
18 | O=c1cc(Cc2cccc3nc(Nc4ccc(C(F)(F)F)cc4)nn23)cc[nH]1 [Example 317, 4-((2-(4-(trifluoromethyl)phenylamino)-[1,2,4]triazolo[1,5-a]pyridin-5-yl)methyl)pyridin-2(1H)-one] | 0.005 to 250
19 | N#Cc1cc(Nc2nc3cccc(N[C@H]4CC[C@@H](O)CC4)n3n2)ccn1 [Example 256, cis-4-(5-(4-hydroxycyclohexylamino)-[1,2,4]triazolo[1,5-a]pyridin-2-ylamino)picolinonitrile] | 500 to 1000
20 | Cn1ncc2ccc(Nc3nc4cccc(N[C@H]5CC[C@@H](O)CC5)n4n3)cc21 [Example 364, cis-4-(2-(1-methyl-1H-indazol-6-ylamino)-[1,2,4]triazolo[1,5-a]pyridin-5-ylamino)cyclohexanol] | 0.005 to 250
21 | CN(c1cccc2nc(Nc3ccc(C(F)(F)F)cc3)nn12)[C@H]1CC[C@@H](O)CC1 [Example 266, cis-4-(methyl(2-(4-(trifluoromethyl)phenylamino)-[1,2,4]triazolo[1,5-a]pyridin-5-yl)amino)cyclohexanol] | 1000 to 10000
22 | Cc1n[nH]c2cc(Nc3nc4cccc(N[C@H]5CC[C@H](O)CC5)n4n3)ccc12 (stereo in doubt) [Example 201, trans-4-(2-(3-methyl-1H-indazol-6-ylamino)-[1,2,4]triazolo[1,5-a]pyridin-5-ylamino)cyclohexanol] | 0.005 to 250
23 | CNC(=O)c1ccc(Nc2nc3cccc(N4CC[C@H](O)C4)n3n2)cc1 [Example 249, (S)-4-(5-(3-hydroxypyrrolidin-1-yl)-[1,2,4]triazolo[1,5-a]pyridin-2-ylamino)-N-methylbenzamide] | 500 to 1000
24 | CNC(=O)c1ccc(Nc2nc3cccc(N4CCC(O)C4)n3n2)cc1 (stereo in doubt) [Example 250, (R)-4-(5-(3-hydroxypyrrolidin-1-yl)-[1,2,4]triazolo[1,5-a]pyridin-2-ylamino)-N-methylbenzamide] | 500 to 1000
25 | OC1CCC[C@@H]1Nc1cccc2nc(Nc3ccc(C(F)(F)F)cc3)nn12 (stereo in doubt) [Example 374, (1S,2S)-2-(2-(4-(trifluoromethyl)phenylamino)-[1,2,4]triazolo[1,5-a]pyridin-5-ylamino)cyclopentanol] | 0.005 to 250
26 | Cc1cc(Nc2nc3cccc(N[C@H]4CC[C@@H](O)CC4)n3n2)cc2[nH]ncc12 [Example 204, cis-4-(2-(4-methyl-1H-indazol-6-ylamino)-[1,2,4]triazolo[1,5-a]pyridin-5-ylamino)cyclohexanol] | 0.005 to 250
27 | O[C@H]1CC[C@@H](Nc2cccc3nc(Nc4ccc(F)c(F)c4)nn23)CC1 [Example 311, cis-4-(2-(3,4-difluorophenylamino)-[1,2,4]triazolo[1,5-a]pyridin-5-ylamino)cyclohexanol] | 250 to 500
28 | FC(F)(F)c1ccc(Nc2nc3cccc(OC[C@@H]4CCCN4)n3n2)cc1 [Example 303, (S)-5-(pyrrolidin-2-ylmethoxy)-N-(4-(trifluoromethyl)phenyl)-[1,2,4]triazolo[1,5-a]pyridin-2-amine] | 1000 to 10000

same assay, conditions: read-out: Activity Level (Syk HTRF assay IC50)

Row | Structure (SMILES) | IC50 [nM]
29 | CN1C(=O)C(C)(C)c2ccc(Nc3nc4cccc(CN5CCNC(=O)C5)n4n3)cc21 [Example 136, 1,3,3-trimethyl-6-(5-((3-oxopiperazin-1-yl)methyl)-[1,2,4]triazolo[1,5-a]pyridin-2-ylamino)inolin-2-one] | 0.005 to 250
30 | COCc1nc2ccc(Nc3nc4cccc(N[C@H]5CC[C@@H](O)CC5)n4n3)cc2[nH]1 [Example 196, cis-4-(2-(2-(methoxymethyl)-1H-benzo[d]imidazol-6-ylamino)-[1,2,4]triazolo[1,5-a]pyridin-5-ylamino)cyclohexyl] | 0.005 to 250
31 | Cn1cnc2cc(Nc3nc4cccc(-c5ccccc5)n4n3)ccc21 [compound 55, N-(1-methyl-1H-benzo[d]imidazol-5-yl)-5-phenyl-[1,2,4]triazolo[1,5-a]pyridin-2-amine] | 250 to 500
32 | O=C1CN(Cc2cccc3nc(Nc4ccc5c(C(F)(F)F)n[nH]c5c4)nn23)CCN1 [Example 155, 4-((2-(3-(trifluoromethyl)-1H-indazol-6-ylamino)-[1,2,4]triazolo[1,5-a]pyridin-5-yl)methyl)piperazin-2-one] | 0.005 to 250
33 | Cc1n[nH]c2cc(Nc3nc4cccc(NC5COCC5O)n4n3)ccc12 (racemic) [Example 166, (±)-trans-4-(2-(3-methyl-1H-indazol-6-ylamino)-[1,2,4]-triazolo[1,5-a]pyridin-5-ylamino)tetrahydrofuran-3-ol] | 0.005 to 250
34 | c1ccc(-c2cccc3nc(Nc4ccc5c(NC6CCNCC6)n[nH]c5c4)nn23)cc1 [compound 23] | 0.005 to 250
35 | CC1(C)NC(=O)c2cc(Nc3nc4cccc(NC5CCOCC5)n4n3)ccc21 [compound 128, 3,3-dimethyl-6-(5-(tetrahydro-2H-pyran-4-ylamino)-[1,2,4]triazolo[1,5-a]pyridin-2-ylamino)isoindolin-1-one] | 500 to 1000
36 | Cc1n[nH]c2cc(Nc3nc4cccc(NC[C@H]5CCC(O)C5)n4n3)ccc12 (stereo in doubt) [Example 180, (1R,3S)-3-((2-(3-methyl-1H-indazol-6-ylamino)-[1,2,4]triazolo[1,5-a]pyridin-5-ylamino)methyl)cyclopentanol] | 0.005 to 250
37 | c1cc(NC2CCOCC2)n2nc(Nc3cnc4cn[nH]c4c3)nc2c1 [compound 111] | 1000 to 10000
38 | Nc1ccc2cc(Nc3nc4cccc(-c5ccccc5)n4n3)ccc2n1 [compound 17] | 0.005 to 250
39 | CNC(=O)c1ccc(Nc2nc3cccc(-c4ccc(C(=O)O)cc4)n3n2)cc1 [compound 29, 4-(2-(4-(methylcarbamoyl)phenylamino)-[1,2,4]triazolo[1,5-a]pyridin-5-yl)benzoic acid] | 1000 to 10000
40 | CN(C)c1ccc(Nc2nc3cccc(-c4ccccc4)n3n2)cc1 [Example 94] | 0.005 to 250
